The results in this text go back to patent US20250263370A1 (Tay Therapeutics Limited, priority 2022, published 2025).

Molecules are shown by their SMILES. Where two headings read alike, the source gives them in different places.

One assay addresses BRD4 BD1 (Homo sapiens (Human), UniProt O60885). Description: NanoBRET bromodomain assay, NanoLuc-BRD4-BD1 fusion in HEK293 cells. The class given is cell-based. The conditions noted are these: top concentration 10 μM. For orientation: In BRET a luciferase serves as donor, and the signal depends on an acceptor being close.
The next assay has as its target BRD4 BD2 (Homo sapiens (Human), UniProt O60885). Description: NanoBRET bromodomain assay, NanoLuc-BRD4-BD2 fusion in HEK293 cells.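 As to all read-outs here: tracer displacement BRET read in transfected cells after 2 h compound exposure at 37 °C, signal in milliBRET units corrected against no-tracer background wells.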 The note with it: for IC50: NanoBRET, HEK293 cells, top concentration 10 μM; for Fold selectivity: IC50 for BRD4 BD1 divided by IC50 for BRD4 BD2, qualitative if an IC50 is at the upper limit; for remaining activity at 10 µM: HEK293, read-out: BRD4 BD2 % Activity Remaining @ 10 uM, 10 uM, (2) = second batch.

With `CCNC(=O)c1cc(OC(C)c2ccccc2C)c(C(=O)NC)[nH]1` (racemic) [Example 5, N^5-ethyl-N^2-methyl-3-(1-(o-tolyl)ethoxy)-1H-pyrrole-2,5-dicarboxamide], the values for the IC50 against BRD4 BD1 and at BRD4 BD2 (BRD4 BD2 (IC50)) were no less than 10 µM and 0.05 to 0.2 µM, respectively. Also, the Fold selectivity entry at BRD4 BD2 was “XX (Fold >50 and ≤200)”.
As for `CCNC(=O)c1cc(OC(C)c2ccc(Cl)cc2)c(C(=O)NC)[nH]1` (racemic) [Example 122, 3-(1-(4-chlorophenyl)ethoxy)-N^5-ethyl-N^2-methyl-1H-pyrrole-2,5-dicarboxamide], the figures for the IC50 at BRD4 BD1 and at BRD4 BD2 (BRD4 BD2 (IC50)) were no less than 10 µM and 0.05 to 0.2 µM, respectively. The Fold selectivity result on BRD4 BD2 is “XX (Fold >50 and ≤200)”.
With `CCCC(Oc1cc(C(=O)NCC)[nH]c1C(=O)NC)c1ccccc1` (racemic) [Example 16, N^5-ethyl-N^2-methyl-3-(1-phenylbutoxy)-1H-pyrrole-2,5-dicarboxamide], the values for the 50% inhibitory concentration (IC50) at BRD4 BD1 and on BRD4 BD2 (BRD4 BD2 (IC50)) were no less than 10 µM and 0.2 to 1 µM, respectively. For the same compound, the Fold selectivity entry on BRD4 BD2 is “X (Fold >2 and ≤50)”.
For `CCNC(=O)c1cc(OC(C)c2ccc(OC)cc2)c(C(=O)NC)[nH]1` (single isomer, unassigned) [Example 76, N^5-ethyl-3-(1-(4-methoxyphenyl)ethoxy)-N^2-methyl-1H-pyrrole-2,5-dicarboxamide], the IC50 against BRD4 BD1 is no less than 10 µM; at BRD4 BD2 (BRD4 BD2 (IC50)), greater than 10 µM. Moreover, the Fold selectivity entry on BRD4 BD2 is “— (Fold ≥0 and ≤2)”.
Regarding `CCNC(=O)c1cc(OC(C)c2ccccc2F)c(C(=O)NC)[nH]1` (racemic) [Example 124, N^5-ethyl-3-(1-(2-fluorophenyl)ethoxy)-N^2-methyl-1H-pyrrole-2,5-dicarboxamide], the IC50 against BRD4 BD1 was no less than 10 µM; at BRD4 BD2 (BRD4 BD2 (IC50)), 0.05 to 0.2 µM. At BRD4 BD2, the Fold selectivity entry was “XX (Fold >50 and ≤200)”.
For the compound `CNC(=O)c1[nH]c(C(=O)N[C@H]2CC[C@H](O)CC2)cc1O[C@@H](C)c1ccnnc1` (single isomer, unassigned) [Example 91, N^5-(4-hydroxycyclohexyl)-N^2-methyl-3-(1-(pyridazin-4-yl)ethoxy)-1H-pyrrole-2,5-dicarboxamide], the IC50 against BRD4 BD1 was no less than 10 µM; against BRD4 BD2 (BRD4 BD2 (IC50)), greater than 10 µM. Besides, the Fold selectivity result on BRD4 BD2 is “— (Fold ≥0 and ≤2)”.
Consider `CCNC(=O)c1cc(OC(C)c2cccc(OC)c2)c(C(=O)NC)[nH]1` (racemic) [Example 7, N^5-ethyl-3-(1-(3-methoxyphenyl)ethoxy)-N^2-methyl-1H-pyrrole-2,5-dicarboxamide], for which the IC50 against BRD4 BD1 is no less than 10 µM; against BRD4 BD2 (BRD4 BD2 (IC50)) it was 0.2 to 1 µM. For the same compound, at BRD4 BD2, the Fold selectivity entry is “X (Fold >2 and ≤50)”.
Turning to `CNC(=O)c1[nH]c(C(=O)N[C@H]2CC[C@H](O)CC2)cc1O[C@@H](C)c1ccnnc1` (single isomer, unassigned) [Example 93, N^5-(4-hydroxycyclohexyl)-N^2-methyl-3-(1-(pyridazin-4-yl)ethoxy)-1H-pyrrole-2,5-dicarboxamide], the half-inhibitory concentration (IC50) on BRD4 BD1 is no less than 10 µM; at BRD4 BD2 (read-out: BRD4 BD2 (IC50)) it was greater than 10 µM. Moreover, the Fold selectivity result at BRD4 BD2 is “— (Fold ≥0 and ≤2)”.
Consider `CCNC(=O)c1cc(OC(C)c2c(Cl)cccc2Cl)c(C(=O)NC)[nH]1` (single isomer, unassigned) [Example 67, 3-(1-(2,6-dichlorophenyl)ethoxy)-N^5-ethyl-N^2-methyl-1H-pyrrole-2,5-dicarboxamide], for which the IC50 on BRD4 BD1 is no less than 10 µM; at BRD4 BD2 (read-out: BRD4 BD2 (IC50)), greater than 10 µM. Besides, the Fold selectivity result on BRD4 BD2 was “— (Fold ≥0 and ≤2)”.
For `CNC(=O)c1[nH]c(-c2cc(C)nc(C)c2)cc1O[C@@H](C)c1ccccc1` [Example 90, (S)-5-(2,6-dimethylpyridin-4-yl)-N-methyl-3-(1-phenylethoxy)-1H-pyrrole-2-carboxamide], the IC50 on BRD4 BD1 is no less than 10 µM; against BRD4 BD2 (BRD4 BD2 (IC50)), 0.2 to 1 µM. On BRD4 BD2, the Fold selectivity entry is “X (Fold >2 and ≤50)”.
For `CCNC(=O)c1cc(OC(C)c2ccc(C#N)cc2)c(C(=O)NC)[nH]1` (racemic) [Example 9, 3-(1-(4-cyanophenyl)ethoxy)-N^5-ethyl-N^2-methyl-1H-pyrrole-2,5-dicarboxamide], the IC50 at BRD4 BD1 was no less than 10 µM; against BRD4 BD2 (BRD4 BD2 (IC50)), greater than 10 µM. Besides, the Fold selectivity entry on BRD4 BD2 was “— (Fold ≥0 and ≤2)”.
For `CCNC(=O)c1cc(OC(C)c2c(Cl)cccc2Cl)c(C(=O)NC)[nH]1` (single isomer, unassigned) [Example 66, 3-(1-(2,6-dichlorophenyl)ethoxy)-N^5-ethyl-N^2-methyl-1H-pyrrole-2,5-dicarboxamide], the IC50 is no less than 10 µM at BRD4 BD1 and greater than 10 µM against BRD4 BD2 (BRD4 BD2 (IC50)). For the same compound, the Fold selectivity entry on BRD4 BD2 is “— (Fold ≥0 and ≤2)”.
As for `CNC(=O)c1[nH]c(C(=O)NCC(F)(F)F)cc1O[C@@H](C)c1ccc(Cl)cc1` [Example 60, (S)-3-(1-(4-chlorophenyl)ethoxy)-N^2-methyl-N^5-(2,2,2-trifluoroethyl)-1H-pyrrole-2,5-dicarboxamide], the half-maximal inhibitory concentration (IC50) on BRD4 BD1 was no less than 10 µM; against BRD4 BD2 (BRD4 BD2 (IC50)), 0.05 to 0.2 µM. In addition, on BRD4 BD2, the Fold selectivity entry was “XX (Fold >50 and ≤200)”.
For `CCNC(=O)c1cc(OC(C)c2c(C)cccc2C)c(C(=O)NC)[nH]1` (single isomer, unassigned) [Example 64, 3-(1-(2,6-dimethylphenyl)ethoxy)-N^5-ethyl-N^2-methyl-1H-pyrrole-2,5-dicarboxamide], the Fold selectivity entry on BRD4 BD2 was “— (Fold ≥0 and ≤2)”.
For the compound `CNC(=O)c1[nH]c(-c2ncc(C)[nH]2)cc1O[C@H](C)c1ccccc1` [Example 24, (R)-N-methyl-5-(5-methyl-1H-imidazol-2-yl)-3-(1-phenylethoxy)-1H-pyrrole-2-carboxamide], the figures for the IC50 on BRD4 BD1 and against BRD4 BD2 (BRD4 BD2 (IC50)) were no less than 10 µM and 1 to 10 µM, respectively. The remaining activity at 10 µM at BRD4 BD2 was 41%.
Take `CCNC(=O)c1cc(OC(C)c2cccc(C(F)(F)F)c2)c(C(=O)NC)[nH]1` (racemic) [Example 125, N^5-ethyl-N^2-methyl-3-(1-(3-(trifluoromethyl)phenyl)ethoxy)-1H-pyrrole-2,5-dicarboxamide]: the IC50 against BRD4 BD1 is no less than 10 µM; on BRD4 BD2 (BRD4 BD2 (IC50)), 0.2 to 1 µM. The Fold selectivity entry on BRD4 BD2 was “X (Fold >2 and ≤50)”.
Regarding `CCNC(=O)c1cc(OC(C)c2ccnnc2)c(C(=O)NC)[nH]1` (single isomer, unassigned) [Example 79, N^5-ethyl-N^2-methyl-3-(1-(pyridazin-4-yl)ethoxy)-1H-pyrrole-2,5-dicarboxamide], the IC50 on BRD4 BD1 is no less than 10 µM; on BRD4 BD2 (BRD4 BD2 (IC50)), 1 to 10 µM. Further, the Fold selectivity result at BRD4 BD2 was “— (Fold ≥0 and ≤2)”.
On to `CCNC(=O)c1cc(OC(C)c2ccccn2)c(C(=O)NC)[nH]1` (racemic) [Example 96, N^5-ethyl-N^2-methyl-3-(1-(pyridin-2-yl)ethoxy)-1H-pyrrole-2,5-dicarboxamide], for which the concentration for half-maximal inhibition (IC50) against BRD4 BD1 was no less than 10 µM. The compound further gave an IC50 against BRD4 BD2 (BRD4 BD2 (IC50)) of 0.2 to 1 µM. Also, at BRD4 BD2, the remaining activity at 10 µM turned out to be 30%; the Fold selectivity entry was “X (Fold >2 and ≤50)”.
`CCNC(=O)c1cc(OC(CCOC)c2ccccc2)c(C(=O)NC)[nH]1` (racemic) [Example 8, N^5-ethyl-3-(3-methoxy-1-phenylpropoxy)-N^2-methyl-1H-pyrrole-2,5-dicarboxamide]: the IC50 is no less than 10 µM against BRD4 BD1 and greater than 10 µM against BRD4 BD2 (BRD4 BD2 (IC50)). The Fold selectivity entry at BRD4 BD2 was “— (Fold ≥0 and ≤2)”.
For the compound `CCNC(=O)c1cc(OC(C)c2ccc(F)cc2)c(C(=O)NC)[nH]1` (racemic) [Example 127, N^5-ethyl-3-(1-(4-fluorophenyl)ethoxy)-N^2-methyl-1H-pyrrole-2,5-dicarboxamide], the IC50 at BRD4 BD1 was no less than 10 µM; against BRD4 BD2 (BRD4 BD2 (IC50)) it was 0.05 to 0.2 µM. Besides, the Fold selectivity entry at BRD4 BD2 was “XX (Fold >50 and ≤200)”.
As to `CCNC(=O)c1cc(OC(C)c2ccnnc2)c(C(=O)NC)[nH]1` (single isomer, unassigned) [Example 78, N^5-ethyl-N^2-methyl-3-(1-(pyridazin-4-yl)ethoxy)-1H-pyrrole-2,5-dicarboxamide], the IC50 is no less than 10 µM at BRD4 BD1 and greater than 10 µM at BRD4 BD2 (BRD4 BD2 (IC50)). Moreover, the Fold selectivity entry at BRD4 BD2 is “— (Fold ≥0 and ≤2)”.
With `CCNC(=O)c1cc(OC(C)c2c(C)cccc2C)c(C(=O)NC)[nH]1` (single isomer, unassigned) [Example 65, 3-(1-(2,6-dimethylphenyl)ethoxy)-N^5-ethyl-N^2-methyl-1H-pyrrole-2,5-dicarboxamide], the half-inhibitory concentration (IC50) against BRD4 BD1 is no less than 10 µM; on BRD4 BD2 (BRD4 BD2 (IC50)), greater than 10 µM. At BRD4 BD2, the Fold selectivity result is “— (Fold ≥0 and ≤2)”.
On to `CNC(=O)c1[nH]c(C(=O)N[C@H](C)C(F)(F)F)cc1O[C@@H](C)c1ccccc1` [Example 119, N^2-methyl-3-((S)-1-phenylethoxy)-N^5-((R)-1,1,1-trifluoropropan-2-yl)-1H-pyrrole-2,5-dicarboxamide], for which the IC50 at BRD4 BD1 was no less than 10 µM; at BRD4 BD2 (BRD4 BD2 (IC50)), greater than 10 µM. The Fold selectivity result on BRD4 BD2 was “— (Fold ≥0 and ≤2)”.
As to `CCNC(=O)c1cc(OC(C)c2ccccc2C#N)c(C(=O)NC)[nH]1` (racemic) [Example 11, 3-(1-(2-cyanophenyl)ethoxy)-N^5-ethyl-N^2-methyl-1H-pyrrole-2,5-dicarboxamide], the IC50 against BRD4 BD1 was no less than 10 µM; against BRD4 BD2 (BRD4 BD2 (IC50)) it was greater than 10 µM. On BRD4 BD2, the Fold selectivity result is “— (Fold ≥0 and ≤2)”.
Regarding `CNC(=O)c1[nH]c(C(=O)NC2CCC2)cc1OC(C)c1ccc(Cl)cc1` (single isomer, unassigned) [Example 28, 3-(1-(4-chlorophenyl)ethoxy)-N^5-cyclobutyl-N^2-methyl-1H-pyrrole-2,5-dicarboxamide], the Fold selectivity result at BRD4 BD2 is “— (Fold ≥0 and ≤2)”.
As to `CNC(=O)c1[nH]c(C(=O)N[C@H]2CC[C@H](O)CC2)cc1O[C@@H](C)c1ccnnc1` (single isomer, unassigned) [Example 92, N^5-(4-hydroxycyclohexyl)-N^2-methyl-3-(1-(pyridazin-4-yl)ethoxy)-1H-pyrrole-2,5-dicarboxamide], at BRD4 BD2, the Fold selectivity entry was “— (Fold ≥0 and ≤2)”.

As a reminder, the IC50 is the midpoint of a concentration-inhibition curve. Usually remaining activity stands for the activity still measured, relative to the control.
